# Reference: publication PMC8780828 (Viruses, 2021)
# What was measured:
# [1] = test system: pseudovirus NL4-3ΔEnv-NanoLuc/SARS-CoV-2; assay: organism not typed; assay type: cell-based; details: A549-ACE2; n=3
# [2] = test system: SARS-CoV-2 (US_WA-1/2020); assay type: cell-based
# in vivo = details: female, Sprague Dawley, rat; for MRT inf: MRT0-inf_obs; for half-life: t1/2
# CYP2C8 [3] = biological target: T1, CYP2C8 (Homo sapiens, UniProt P10632); assay: in vitro; details: microsomes, pH 7.4
# CYP2C19 [4] = biological target: T2, CYP2C19 (Homo sapiens, UniProt P33261); assay: in vitro; details: microsomes, pH 7.4
# CYP2C8 [5] = biological target: T1, CYP2C8; assay: biochemical
# CYP2C19 [6] = biological target: T2, CYP2C19; assay: biochemical
# T1 sequence (P10632 whole entry): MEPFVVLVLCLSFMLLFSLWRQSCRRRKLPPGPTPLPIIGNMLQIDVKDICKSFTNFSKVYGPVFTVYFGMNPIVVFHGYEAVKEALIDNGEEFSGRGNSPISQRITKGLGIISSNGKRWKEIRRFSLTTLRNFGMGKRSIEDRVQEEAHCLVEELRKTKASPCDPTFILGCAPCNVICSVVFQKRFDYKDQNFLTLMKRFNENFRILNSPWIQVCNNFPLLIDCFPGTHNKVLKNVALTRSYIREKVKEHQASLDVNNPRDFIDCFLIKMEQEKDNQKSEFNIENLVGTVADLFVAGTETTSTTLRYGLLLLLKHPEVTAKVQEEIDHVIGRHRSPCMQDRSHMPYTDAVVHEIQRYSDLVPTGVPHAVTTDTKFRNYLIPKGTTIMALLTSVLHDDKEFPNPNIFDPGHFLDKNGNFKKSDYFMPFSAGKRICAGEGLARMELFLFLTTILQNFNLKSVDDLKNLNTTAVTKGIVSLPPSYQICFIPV
# T2 sequence (P33261 whole entry): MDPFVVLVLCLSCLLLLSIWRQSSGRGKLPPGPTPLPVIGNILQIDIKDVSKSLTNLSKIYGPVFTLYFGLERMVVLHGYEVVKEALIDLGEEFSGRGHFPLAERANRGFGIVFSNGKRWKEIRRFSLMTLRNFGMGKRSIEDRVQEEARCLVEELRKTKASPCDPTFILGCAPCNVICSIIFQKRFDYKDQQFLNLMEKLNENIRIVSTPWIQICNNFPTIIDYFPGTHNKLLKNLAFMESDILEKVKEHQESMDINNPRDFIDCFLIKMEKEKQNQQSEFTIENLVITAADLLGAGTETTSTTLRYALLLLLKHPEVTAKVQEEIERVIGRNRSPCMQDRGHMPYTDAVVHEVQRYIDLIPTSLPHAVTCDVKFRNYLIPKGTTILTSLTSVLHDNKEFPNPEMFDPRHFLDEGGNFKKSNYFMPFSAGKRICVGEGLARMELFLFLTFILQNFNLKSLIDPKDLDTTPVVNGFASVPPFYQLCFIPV
compound,measurement,setting,value
O=C(O)c1cc(-c2ccc(/C=C3\SC(=S)N(CCc4ccccc4)C3=O)o2)ccc1Cl [NBCoV1],IC50,[1],63.6 ± 4.6 nM
same,IC100,[2],> 10 µM
same,bioavailability,in vivo; F% (bioavailability),20%
same,C0,"in vivo; iv, 5 mg/kg",7410 ng/mL
same,Tmax,"in vivo; iv, 5 mg/kg",0.25 h
same,Cmax,"in vivo; iv, 5 mg/kg",7820 ng/mL
same,MRT inf,"in vivo; iv, 5 mg/kg",4.02 h
same,half-life,"in vivo; iv, 5 mg/kg",3.57 h
same,Tmax,"in vivo; po, 10 mg/kg",2 h
same,Cmax,"in vivo; po, 10 mg/kg",1500 ng/mL
same,MRT inf,"in vivo; po, 10 mg/kg",14 h
same,half-life,"in vivo; po, 10 mg/kg",11.3 h
same,solubility,"physchem; pH 7.4, Solubility (AVG)",4.72 µM
same,solubility,"physchem; pH 7.4, Solubility, single replicates (R1, R2)",4.35 µM
same,activity at 0.0137 µM,CYP2C8 [3],102%
same,activity at 0.0412 µM,CYP2C8 [3],89%
same,activity at 0.123 µM,CYP2C8 [3],98.3%
same,activity at 1.11 µM,CYP2C8 [3],76.9%
same,activity at 3.33 µM,CYP2C8 [3],25.3%
same,activity at 10 µM,CYP2C8 [3],3.87%
same,activity at 0.0137 µM,CYP2C19 [4],103%
same,activity at 0.0412 µM,CYP2C19 [4],110%
same,activity at 0.123 µM,CYP2C19 [4],101%
same,activity at 0.37 µM,CYP2C19 [4],102%
same,activity at 1.11 µM,CYP2C19 [4],92%
same,activity at 3.33 µM,CYP2C19 [4],70.8%
same,activity at 10 µM,CYP2C19 [4],40.7%
same,IC50,CYP2C8 [5],2080 nM
same,IC50,CYP2C19 [6],7310 nM
